Test results from patent EP0271023A2, “Use of dihydrophenylamino-acid derivatives and medicines containing them for immunomodulation and cytostasis” (GÖDECKE AKTIENGESELLSCHAFT, priority 1986, dated 1988).

Key:
[1] = tested on: allogene Hauttransplantate; assay type: in vivo, Ratte; conditions: for Toxizität / Unverträglichkeit der behandelten Tiere: skin graft model, Tab. I, Azathioprin in äquipotenter Dosis; for Wirksamkeit im Hauttransplantat-Modell (immunsuppressive Aktivität): qualitative statement
Excerpt: Die mit einer Stanze gewonnenen und vom Panniculus carnosus (einer Fett- und Muskelschicht) präparativ befreiten Transplantate werden in ebenfalls ausgestanzte Transplantatbetten des Empfängertiers plaziert. Die Transplantate werden mit speziellem Verbandmaterial bedeckt und mit einer Bandage fixiert. Endpunkt der Untersuchung ist der Tag, an dem 50 % der Tiere beide Transplantate vollständig abgestoßen haben. Die immunsuppressive Aktivität eines Wirkstoffs wird anhand der Verlängerung des normalen Transplantatüberlebens (Tage) der nicht behandelten Kontrolltiere bestimmt.

[2] = cited from earlier work
[3] = tested on: boviner Endothelzellen; assay: In vitro migration/motility of endothelial cells under angiogenic stimulus (modified Boyden chamber); assay type: cell-based, bovine; conditions: for Anzahl der migrierten Zellen Kollagen-Fibronektin-Filter / Anzahl der migrierten Zellen Kollagen-Filter: Präinkubation + (Gangliosid-Mischung), innerhalb 8 Stunden, Mittelwert (± Standardabweichung) von 3 Versuchen
Excerpt: Es wurde daher eine Untersuchung mit Cefradin als Modellsubstanz auf eine die Gefäßbildung hemmende Aktivität in einem hierzu geeigneten in vitro Model durchgeführt (s. Tab. II). In diesem Test wird der Einfluß auf die Motilität boviner Endothelzellen unter angiogenem (gefäßbildendem) Stimulus bestimmt.

Compound	Toxizität / Unverträglichkeit der behandelten Tiere [1]	Wirksamkeit im Hauttransplantat-Modell (immunsuppressive Aktivität) [1]	Ausbildung der Gefäßverbindung zwischen Transplantatbett und Transplantat ([1]; höchste Cefradin Dosis, in controls established by about the 5th postoperative day)	Nierentoxizität ([2]; im Tierversuch, länger dauernde hochdosierte Anwendung)	leukopenische Wirkung ([2]; in vivo)	Anzahl der migrierten Zellen Kollagen-Fibronektin-Filter ([3]; Cefradin 10 µg/ml Medium)	Anzahl der migrierten Zellen Kollagen-Filter ([3]; Cefradin 10 µg/ml Medium)	Anzahl der migrierten Zellen Kollagen-Fibronektin-Filter ([3]; Cefradin 100 µg/ml Medium)	Anzahl der migrierten Zellen Kollagen-Filter ([3]; Cefradin 100 µg/ml Medium)	Anzahl der migrierten Zellen Kollagen-Fibronektin-Filter ([3]; Cefradin 1000 µg/ml Medium)	Anzahl der migrierten Zellen Kollagen-Filter ([3]; Cefradin 1000 µg/ml Medium)	Aktivität auf die Motilität boviner Endothelzellen ([3]; concentration range corresponding to the low, already immunosuppressive in vivo doses)	Inhibition der Endothelmotilität ([3]; in hoher, bereits zytotoxischer Konzentration)
Cn1cnc([N+](=O)[O-])c1Sc1ncnc2nc[nH]c12 [Azathioprin, 6[(1-Methylnitroimidazol-5-yl)thio]purin]	ausgeprägt toxisch												
CC1=C(C(=O)O)N2C(=O)[C@@H](NC(=O)[C@H](N)c3ccc(O)cc3)[C@H]2SC1 [Cefadroxil]		Unwirksamkeit											
CC1=C(C(=O)O)N2C(=O)C(NC(=O)C(N)C3=CCC=CC3)C2SC1 (stereo not drawn) [Cefradin]	keinerlei Unverträglichkeit	außerordentlich wirksam	unterdrückte	keine Nierentoxizität	nicht leukopenisch	306 ± 74	173 ± 29	256 ± 24	104 ± 3	51 ± 6	23 ± 8	nur geringfügige, wenn auch dosisabhängige Aktivität	komplette Inhibition
